The text below walks through data of patent US10428081B2, “EGFR inhibitor, preparation method and use thereof” (Shanghai Hansoh Biomedical Co., Ltd., priority 2014, dated 2019).

For one assay, the system named is NCI-H1975 cells. The experiment in a line: Inhibition of NCI-H1975 cell proliferation (CellTiter-Glo). Format: cell-based. The note with it: for IC50: Homo sapiens, NCI-H1975, 72 h, NCI-H1975 cell proliferation, 72 hours, CellTiter-Glo, read-out: EGFR IC50 (nM) H1975; for Selectivity of wild-type/mutant-type: ratio A431 IC50 / H1975 IC50, cells.
In a further assay the target is wild-type EGFR enzyme (Homo sapiens, UniProt P00533). In words: Enzymologic experiment of wild-type (WT) EGFR (TR-FRET). Particulars: ATP 0.1 to 5 uM. Format: biochemical. The method, boiled down: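 Wild-type EGFR (0.1 to 1 nM final) preincubated with serially diluted compound for 10 minutes at room temperature; reaction stopped with EDTA, then labelled antibody added for 1 hour at room temperature. TR-FRET signal converted to inhibition rates; IC50 from curve fitting across concentrations.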
In general terms: Time-resolved FRET reads energy transfer from a long-lived donor to a nearby acceptor.

Assay [1] addresses exon 20 T790M mutant-type EGFR enzyme (Homo sapiens, UniProt P00533, T790M). In words: Enzymologic experiment of T790M mutant-type EGFR (TR-FRET). It counts as biochemical. Particulars: for IC50: T790M EGFR enzyme, TR-FRET, ATP 1 to 10 uM; for Selectivity of wild-type/mutant-type: ratio WT IC50 / T790M IC50, enzyme. The method, boiled down:
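Compound dilutions preincubated 10 min at room temperature; reaction ended with EDTA, then labeled antibody added for 1 h at room temperature. Inhibition rates derived from TR-FRET fluorescence signal, and IC50 obtained by curve fitting across concentrations.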

The next assay deals with A431 cells. The experiment in a line: Inhibition of A431 cell proliferation (CellTiter-Glo). Format: cell-based. Particulars: Homo sapiens, A-431, 72 h, read-out: EGFR IC50 (nM) A431. The gist of the method: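 Viability read as CellTiter-Glo luminescence; IC50 by curve fitting of inhibition rates.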

Molecules are shown by their SMILES.

Chain of exon 20 T790M mutant-type EGFR enzyme (P00533 25-1210 T790M): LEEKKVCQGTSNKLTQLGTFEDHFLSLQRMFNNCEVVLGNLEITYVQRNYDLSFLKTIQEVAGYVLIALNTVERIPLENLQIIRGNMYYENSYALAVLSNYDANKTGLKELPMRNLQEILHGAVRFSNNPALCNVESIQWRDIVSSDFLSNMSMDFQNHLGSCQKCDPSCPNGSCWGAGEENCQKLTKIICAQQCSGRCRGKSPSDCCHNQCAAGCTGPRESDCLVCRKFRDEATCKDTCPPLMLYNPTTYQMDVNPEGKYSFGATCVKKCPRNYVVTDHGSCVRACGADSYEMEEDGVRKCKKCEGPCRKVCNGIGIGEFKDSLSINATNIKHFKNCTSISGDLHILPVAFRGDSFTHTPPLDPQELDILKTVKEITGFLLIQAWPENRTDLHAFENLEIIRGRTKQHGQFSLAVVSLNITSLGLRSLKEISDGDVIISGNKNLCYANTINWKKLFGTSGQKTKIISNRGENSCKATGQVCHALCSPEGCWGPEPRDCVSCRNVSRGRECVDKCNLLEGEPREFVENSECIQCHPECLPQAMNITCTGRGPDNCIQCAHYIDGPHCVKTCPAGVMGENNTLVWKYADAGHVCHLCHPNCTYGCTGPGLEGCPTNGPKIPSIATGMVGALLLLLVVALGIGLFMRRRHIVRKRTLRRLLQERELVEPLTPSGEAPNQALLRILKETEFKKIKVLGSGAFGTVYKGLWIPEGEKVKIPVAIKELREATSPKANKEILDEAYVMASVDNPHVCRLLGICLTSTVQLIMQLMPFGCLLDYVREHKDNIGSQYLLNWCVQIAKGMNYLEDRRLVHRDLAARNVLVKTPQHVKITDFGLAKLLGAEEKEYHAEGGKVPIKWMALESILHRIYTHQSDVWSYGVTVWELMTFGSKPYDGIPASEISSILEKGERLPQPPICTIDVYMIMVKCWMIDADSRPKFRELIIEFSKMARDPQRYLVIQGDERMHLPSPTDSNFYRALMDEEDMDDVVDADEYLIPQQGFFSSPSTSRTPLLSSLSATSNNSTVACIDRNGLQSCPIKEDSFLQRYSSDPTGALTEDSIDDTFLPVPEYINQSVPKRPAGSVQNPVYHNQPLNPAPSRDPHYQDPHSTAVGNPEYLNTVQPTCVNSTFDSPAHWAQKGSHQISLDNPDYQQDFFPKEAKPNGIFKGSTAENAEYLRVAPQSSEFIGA
Chain of wild-type EGFR enzyme (P00533 25-1210): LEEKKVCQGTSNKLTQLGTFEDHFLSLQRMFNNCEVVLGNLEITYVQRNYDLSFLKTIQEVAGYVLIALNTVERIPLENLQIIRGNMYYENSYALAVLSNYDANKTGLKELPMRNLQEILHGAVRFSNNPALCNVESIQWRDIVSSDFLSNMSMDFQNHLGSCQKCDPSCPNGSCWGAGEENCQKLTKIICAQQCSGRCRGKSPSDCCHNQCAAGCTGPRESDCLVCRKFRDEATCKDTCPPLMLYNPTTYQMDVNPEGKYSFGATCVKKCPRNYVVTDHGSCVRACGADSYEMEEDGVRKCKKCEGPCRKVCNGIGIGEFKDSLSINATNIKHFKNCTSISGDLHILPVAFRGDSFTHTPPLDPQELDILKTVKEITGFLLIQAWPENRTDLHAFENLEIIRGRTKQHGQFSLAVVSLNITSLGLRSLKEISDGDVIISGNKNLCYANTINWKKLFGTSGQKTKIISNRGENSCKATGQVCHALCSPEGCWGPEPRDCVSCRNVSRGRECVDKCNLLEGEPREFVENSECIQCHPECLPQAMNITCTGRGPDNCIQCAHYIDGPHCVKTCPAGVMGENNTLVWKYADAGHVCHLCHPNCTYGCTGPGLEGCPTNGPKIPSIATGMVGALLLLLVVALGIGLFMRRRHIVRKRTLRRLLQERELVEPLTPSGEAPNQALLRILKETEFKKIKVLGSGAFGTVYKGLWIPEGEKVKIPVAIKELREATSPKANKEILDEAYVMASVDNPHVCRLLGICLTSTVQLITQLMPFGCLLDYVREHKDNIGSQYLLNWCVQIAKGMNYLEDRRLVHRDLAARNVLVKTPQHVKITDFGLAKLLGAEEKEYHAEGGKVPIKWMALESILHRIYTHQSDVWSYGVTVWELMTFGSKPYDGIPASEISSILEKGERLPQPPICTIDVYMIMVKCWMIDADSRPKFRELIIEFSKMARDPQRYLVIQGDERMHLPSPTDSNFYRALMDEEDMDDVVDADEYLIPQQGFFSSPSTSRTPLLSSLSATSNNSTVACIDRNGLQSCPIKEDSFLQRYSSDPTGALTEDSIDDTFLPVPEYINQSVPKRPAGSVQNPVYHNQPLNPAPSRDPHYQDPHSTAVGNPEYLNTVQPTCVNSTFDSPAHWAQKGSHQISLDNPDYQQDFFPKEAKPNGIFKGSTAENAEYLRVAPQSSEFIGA

Take `C=CC(=O)Nc1cc(Nc2nccc(-n3ncc4cc(OCCOC)ccc43)n2)c(OC)cc1N(C)CCN(C)C` [Example 121, N-(2-((2-(dimethylamino)ethyl)(methyl)amino)-4-methoxy-5-((4-(5-(2-methoxyethoxy)-1H-indazol-1-yl)pyrimidin-2-yl)amino)phenyl)acrylamide]: the half-maximal inhibitory concentration (IC50) worked out at 2.09 nM in the assay on NCI-H1975 cells, 3.5 nM against wild-type EGFR enzyme, 0.4 nM in assay [1] and 348 nM in the assay on A431 cells. The Selectivity of wild-type/mutant-type was 166.41 with NCI-H1975 cells and 8.75 in assay [1].

On to `COc1cc(N(C)CCN(C)C)c(NC(=O)/C=C/CN(C)C)cc1Nc1nccc(-c2cn(C3CC3)c3ccccc23)n1` [Example 122, (E)-N-(5-((4-(1-cyclopropyl-1H-indol-3-yl)pyrimidin-2-yl)amino)-2-((2-(dimethylamino)ethyl)(methyl)amino)-4-methoxyphenyl)-4-(dimethylamino)but-2-enamide], for which the IC50 in the assay on NCI-H1975 cells came out at 114 nM; against wild-type EGFR enzyme, 8.4 nM; in assay [1], 0.49 nM; in the assay with A431 cells, 890 nM. Also, the results for the Selectivity of wild-type/mutant-type (in the assay with NCI-H1975 cells; in assay [1]) were 7.84 and 17.14, respectively.

In the case of `C=CC(=O)Nc1cc(Nc2nccc(-c3cn(C4CC4)c4ccccc34)n2)c(OC)cc1N(C)CCN1CCCC1` [Example 123, N-(5-((4-(1-cyclopropyl-1H-indol-3-yl)pyrimidin-2-yl)amino)-4-methoxy-2-(methyl(2-(pyrrolidin-1-yl)ethyl)amino)phenyl)acrylamide], the half-inhibitory concentration (IC50) in the assay with NCI-H1975 cells was found to be 14.9 nM; at wild-type EGFR enzyme it was 27.2 nM; in assay [1], 1.28 nM; with A431 cells, 527 nM. Further, the Selectivity of wild-type/mutant-type is reported as 35.37 in the assay with NCI-H1975 cells and 21.23 in assay [1].

Turning to `C=CC(=O)Nc1cc(Nc2nccc(-c3cn4c5c(cccc35)CCC4)n2)c(OC)cc1N(C)CCN(C)C` [Example 125, N-(5-((4-(5,6-dihydro-4H-pyrrolo[3,2,1-ij]quinolin-1-yl)pyrimidin-2-yl)amino)-2-((2-(dimethylamino)ethyl)(methyl)amino)-4-methoxyphenyl)acrylamide], the IC50 with NCI-H1975 cells was 9.58 nM; against wild-type EGFR enzyme it was 13 nM; in assay [1], 1.42 nM; in the assay on A431 cells, 385 nM. Further, the Selectivity of wild-type/mutant-type in the assay on NCI-H1975 cells was found to be 40.18; in assay [1] it was 9.15.

For `C=CC(=O)Nc1cc(Nc2nccc(-c3cn(C)c4cc(OC)ccc34)n2)c(OC)cc1N(C)CCNC` [Example 127, N-(4-methoxy-5-((4-(6-methoxy-1-methyl-1H-indol-3-yl)pyrimidin-2-yl)amino)-2-(methyl(2-(methylamino)ethyl)amino)phenyl)acrylamide], the IC50 was found to be 2.98 nM in the assay with NCI-H1975 cells, 2.3 nM at wild-type EGFR enzyme, 0.44 nM in assay [1] and 88.2 nM with A431 cells. Further, the Selectivity of wild-type/mutant-type was determined as 29.58 in the assay on NCI-H1975 cells and 5.23 in assay [1].

For `C#CCn1cc(-c2ccnc(Nc3cc(NC(=O)C=C)c(N(C)CCNC)cc3OC)n2)c2ccccc21` [Example 129, N-(4-methoxy-2-(methyl(2-(methylamino)ethyl)amino)-5-((4-(1-(prop-2-yn-1-yl)-1H-indol-3-yl)pyrimidin-2-yl)amino)phenyl)acrylamide], the IC50 in the assay with NCI-H1975 cells was found to be 6.22 nM; at wild-type EGFR enzyme, 13.7 nM; in assay [1] it was 1.01 nM; in the assay on A431 cells, 690 nM. The figures for the Selectivity of wild-type/mutant-type (with NCI-H1975 cells; in assay [1]) were 110.93 and 13.58, respectively.

Regarding `C=CC(=O)Nc1cc(Nc2nccc(-n3ncc4cc(OCCOC)ccc43)n2)c(OC)cc1N(C)CCN1CCCC1` [Example 134, N-(4-methoxy-5-((4-(5-(2-methoxyethoxy)-1H-indazol-1-yl)pyrimidin-2-yl)amino)-2-(methyl(2-(pyrrolidin-1-yl)ethyl)amino)phenyl)acrylamide], the IC50 with NCI-H1975 cells was 12.3 nM; at wild-type EGFR enzyme it was 19.9 nM; in assay [1], 1.85 nM; in the assay with A431 cells, 325 nM. For the same compound, the Selectivity of wild-type/mutant-type with NCI-H1975 cells came out at 26.45; in assay [1], 10.75.

On to `C=CC(=O)Nc1cc(Nc2nccc(-n3ncc4c(OC)cccc43)n2)c(OC)cc1N(C)CCN1CCCC1` [Example 135, N-(4-methoxy-5-((4-(4-methoxy-1H-indazol-1-yl)pyrimidin-2-yl)amino)-2-(methyl(2-(pyrrolidin-1-yl)ethyl)amino)phenyl)acrylamide], for which the IC50 in the assay with NCI-H1975 cells is 7.5 nM; on wild-type EGFR enzyme, 4.62 nM; in assay [1], 0.46 nM; in the assay with A431 cells it was 444 nM. Moreover, the Selectivity of wild-type/mutant-type in the assay with NCI-H1975 cells is 59.19; in assay [1], 10.04.

In the case of `C=CC(=O)Nc1cc(Nc2nccc(-n3ncc4ccc(OC)cc43)n2)c(OC)cc1N(C)CCN1CCCC1` [Example 136, N-(4-methoxy-5-((4-(6-methoxy-1H-indazol-1-yl)pyrimidin-2-yl)amino)-2-(methyl(2-(pyrrolidin-1-yl)ethyl)amino)phenyl)acrylamide], the IC50 with NCI-H1975 cells was 11.2 nM; against wild-type EGFR enzyme it was 4.33 nM; in assay [1], 0.78 nM; in the assay with A431 cells, 336 nM. Further, the Selectivity of wild-type/mutant-type in the assay with NCI-H1975 cells is listed as 30.04; in assay [1], 5.55.

Consider `C=CC(=O)Nc1cc(Nc2nccc(-n3ncc4cc(OC)ccc43)n2)c(OC)cc1N(C)CCN1CCCC1` [Example 137, N-(4-methoxy-5-((4-(5-methoxy-1H-indazol-1-yl)pyrimidin-2-yl)amino)-2-(methyl(2-(pyrrolidin-1-yl)ethyl)amino)phenyl)acrylamide], for which the IC50 was determined as 9.52 nM with NCI-H1975 cells, 6.31 nM against wild-type EGFR enzyme, 1.03 nM in assay [1] and 406 nM in the assay with A431 cells. Besides, the Selectivity of wild-type/mutant-type in the assay on NCI-H1975 cells was found to be 42.70; in assay [1], 6.13.

Consider `C=CC(=O)Nc1cc(Nc2nccc(-n3cnc4cc(OC)ccc43)n2)c(OC)cc1N(C)CCN1CCCC1` [Example 138, N-(4-methoxy-5-((4-(5-methoxy-1H-benzo[d]imidazol-1-yl)pyrimidin-2-yl)amino)-2-(methyl(2-(pyrrolidin-1-yl)ethyl)amino)phenyl)acrylamide], for which the IC50 with NCI-H1975 cells worked out at 3.37 nM; against wild-type EGFR enzyme, 4.92 nM; in assay [1], 0.5 nM; in the assay with A431 cells it was 408 nM. Also, the Selectivity of wild-type/mutant-type stood at 121.22 in the assay on NCI-H1975 cells and 9.84 in assay [1].

As to `C#CCn1cc(-c2ccnc(Nc3cc(NC(=O)C=C)c(N(C)CCN(C)C)cc3OC)n2)c2ccccc21` [Example 140, N-(2-((2-(dimethylamino)ethyl)(methyl)amino)-4-methoxy-5-((4-(1-(prop-2-yn-1-yl)-1H-indol-3-yl)pyrimidin-2-yl)amino)phenyl)acrylamide], the IC50 in the assay with NCI-H1975 cells turned out to be 2.66 nM; on wild-type EGFR enzyme, 8.56 nM; in assay [1] it was 0.58 nM; in the assay on A431 cells it was 576 nM. The Selectivity of wild-type/mutant-type with NCI-H1975 cells was found to be 216.69; in assay [1] it was 14.76.

Broadly, the IC50 is the concentration that gives 50% inhibition.
